Columns and labels:
[1] = target: Tyrosine-protein kinase ZAP-70 (Homo sapiens) (UniProt P43403); settings: Compound concentration 1000.0 nM
[2] = target: Serine/threonine-protein kinase BRSK2 (Homo sapiens) (UniProt Q8IWQ3); settings: Compound concentration 1000.0 nM
[3] = target: Rho-associated protein kinase 2 (Homo sapiens) (UniProt O75116); settings: Compound concentration 1000.0 nM
[4] = target: MAP kinase-interacting serine/threonine-protein kinase 2 (Homo sapiens) (UniProt Q9HBH9); settings: Compound concentration 1000.0 nM
[5] = target: Protein-tyrosine kinase 2-beta (Homo sapiens) (UniProt Q14289); settings: Compound concentration 1000.0 nM
[6] = target: Cyclin-dependent kinase 8 (Homo sapiens) (UniProt P49336); settings: Compound concentration 1000.0 nM
[7] = target: Insulin receptor-related protein (Homo sapiens) (UniProt P14616); settings: Compound concentration 1000.0 nM
[8] = target: RAF proto-oncogene serine/threonine-protein kinase (Homo sapiens) (UniProt P04049); settings: Compound concentration 1000.0 nM
[9] = target: Calcium/calmodulin-dependent protein kinase type II subunit beta (Homo sapiens) (UniProt Q13554); settings: Compound concentration 1000.0 nM
[10] = tested on: Epidermal growth factor receptor (Homo sapiens), P00533 [T790M]; settings: Compound concentration 1000.0 nM
[11] = target: Tyrosine-protein kinase TXK (Homo sapiens) (UniProt P42681); settings: Compound concentration 1000.0 nM
[12] = target: Tyrosine-protein kinase ABL2 (Homo sapiens) (UniProt P42684); settings: Compound concentration 1000.0 nM
[13] = target: Cyclin-dependent kinase 14 (Homo sapiens) (UniProt O94921); settings: Compound concentration 1000.0 nM
[14] = target: Serine/threonine-protein kinase Nek10 (Homo sapiens) (UniProt Q6ZWH5); settings: Compound concentration 1000.0 nM
[15] = target: Uncharacterized serine/threonine-protein kinase SBK3 (Homo sapiens) (UniProt P0C264); settings: Compound concentration 1000.0 nM
[16] = target: 5-hydroxytryptamine receptor 1E (Homo sapiens) (UniProt P28566); settings: Compound concentration 10.0 uM
[17] = target: Phosphatidylinositol 4,5-bisphosphate 3-kinase catalytic subunit alpha isoform (Homo sapiens) (UniProt P42336); settings: Compound concentration 1000.0 nM
[18] = target: Ribosomal protein S6 kinase alpha-1 (Homo sapiens) (UniProt Q15418); settings: Compound concentration 1000.0 nM
[19] = target: Serine/threonine-protein kinase OSR1 (Homo sapiens) (UniProt O95747); settings: Compound concentration 1000.0 nM
[20] = target: Ephrin type-A receptor 4 (Homo sapiens) (UniProt P54764); settings: Compound concentration 1000.0 nM
[21] = target: Mitotic checkpoint serine/threonine-protein kinase BUB1 (Homo sapiens) (UniProt O43683); settings: Compound concentration 1000.0 nM
[22] = target: 5-hydroxytryptamine receptor 7 (Homo sapiens) (UniProt P34969); settings: Compound concentration 10.0 uM
[23] = target: Sigma non-opioid intracellular receptor 1 (Homo sapiens, UniProt Q99720); settings: Compound concentration 10.0 uM
[24] = target: Serine/threonine-protein kinase 16 (Homo sapiens) (UniProt O75716); settings: Compound concentration 1000.0 nM
[25] = target: Ephrin type-B receptor 1 (Homo sapiens) (UniProt P54762); settings: Compound concentration 1000.0 nM
[26] = target: Serine/threonine-protein kinase PLK1 (Homo sapiens) (UniProt P53350); settings: Compound concentration 1000.0 nM
[27] = target: Serine/threonine-protein kinase DCLK2 (Homo sapiens) (UniProt Q8N568); settings: Compound concentration 1000.0 nM
[28] = target: Mitogen-activated protein kinase kinase kinase 10 (Homo sapiens) (UniProt Q02779); settings: Compound concentration 1000.0 nM
[29] = target: Ribosomal protein S6 kinase alpha-4 (Homo sapiens) (UniProt O75676); settings: Compound concentration 1000.0 nM
[30] = target: Calcium/calmodulin-dependent protein kinase type II subunit alpha (Homo sapiens) (UniProt Q9UQM7); settings: Compound concentration 1000.0 nM
[31] = tested on: Epidermal growth factor receptor (Homo sapiens), P00533 [G719C]; settings: Compound concentration 1000.0 nM
[32] = target: 5-hydroxytryptamine receptor 2A (Homo sapiens) (UniProt P28223); settings: Compound concentration 10.0 uM
[33] = target: Serine/threonine-protein kinase 32B (Homo sapiens) (UniProt Q9NY57); settings: Compound concentration 1000.0 nM
[34] = target: Beta-adrenergic receptor kinase 1 (Homo sapiens) (UniProt P25098); settings: Compound concentration 1000.0 nM
[35] = target: T1, 5-hydroxytryptamine receptor 2C (Homo sapiens) (UniProt P28335); settings: Compound concentration 10.0 uM
T1 sequence (whole entry): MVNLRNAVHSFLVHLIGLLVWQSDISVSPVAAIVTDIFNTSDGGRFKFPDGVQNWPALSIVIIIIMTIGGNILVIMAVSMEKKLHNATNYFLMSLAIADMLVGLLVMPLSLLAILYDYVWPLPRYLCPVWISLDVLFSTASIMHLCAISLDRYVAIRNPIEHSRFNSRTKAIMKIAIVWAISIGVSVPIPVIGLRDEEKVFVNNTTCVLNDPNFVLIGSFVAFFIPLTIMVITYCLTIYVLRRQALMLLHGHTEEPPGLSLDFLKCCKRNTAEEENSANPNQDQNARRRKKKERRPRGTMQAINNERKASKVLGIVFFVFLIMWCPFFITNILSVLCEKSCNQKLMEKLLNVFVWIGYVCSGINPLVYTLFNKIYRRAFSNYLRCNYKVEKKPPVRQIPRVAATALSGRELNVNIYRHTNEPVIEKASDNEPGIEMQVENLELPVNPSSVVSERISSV

[36] = target: Mitogen-activated protein kinase 14 (Homo sapiens) (UniProt Q16539); settings: Compound concentration 1000.0 nM
[37] = target: Dual specificity mitogen-activated protein kinase kinase 7 (Homo sapiens) (UniProt O14733); settings: Compound concentration 1000.0 nM
[38] = target: Serine/threonine-protein kinase pim-1 (Homo sapiens) (UniProt P11309); settings: Compound concentration 1000.0 nM
[39] = tested on: Receptor-type tyrosine-protein kinase FLT3 (Homo sapiens), P36888 [D835V]; settings: Compound concentration 1000.0 nM

Chain of Phosphatidylinositol 4,5-bisphosphate 3-kinase catalytic subunit alpha isoform (Homo sapiens) (P42336 whole entry, canonical isoform): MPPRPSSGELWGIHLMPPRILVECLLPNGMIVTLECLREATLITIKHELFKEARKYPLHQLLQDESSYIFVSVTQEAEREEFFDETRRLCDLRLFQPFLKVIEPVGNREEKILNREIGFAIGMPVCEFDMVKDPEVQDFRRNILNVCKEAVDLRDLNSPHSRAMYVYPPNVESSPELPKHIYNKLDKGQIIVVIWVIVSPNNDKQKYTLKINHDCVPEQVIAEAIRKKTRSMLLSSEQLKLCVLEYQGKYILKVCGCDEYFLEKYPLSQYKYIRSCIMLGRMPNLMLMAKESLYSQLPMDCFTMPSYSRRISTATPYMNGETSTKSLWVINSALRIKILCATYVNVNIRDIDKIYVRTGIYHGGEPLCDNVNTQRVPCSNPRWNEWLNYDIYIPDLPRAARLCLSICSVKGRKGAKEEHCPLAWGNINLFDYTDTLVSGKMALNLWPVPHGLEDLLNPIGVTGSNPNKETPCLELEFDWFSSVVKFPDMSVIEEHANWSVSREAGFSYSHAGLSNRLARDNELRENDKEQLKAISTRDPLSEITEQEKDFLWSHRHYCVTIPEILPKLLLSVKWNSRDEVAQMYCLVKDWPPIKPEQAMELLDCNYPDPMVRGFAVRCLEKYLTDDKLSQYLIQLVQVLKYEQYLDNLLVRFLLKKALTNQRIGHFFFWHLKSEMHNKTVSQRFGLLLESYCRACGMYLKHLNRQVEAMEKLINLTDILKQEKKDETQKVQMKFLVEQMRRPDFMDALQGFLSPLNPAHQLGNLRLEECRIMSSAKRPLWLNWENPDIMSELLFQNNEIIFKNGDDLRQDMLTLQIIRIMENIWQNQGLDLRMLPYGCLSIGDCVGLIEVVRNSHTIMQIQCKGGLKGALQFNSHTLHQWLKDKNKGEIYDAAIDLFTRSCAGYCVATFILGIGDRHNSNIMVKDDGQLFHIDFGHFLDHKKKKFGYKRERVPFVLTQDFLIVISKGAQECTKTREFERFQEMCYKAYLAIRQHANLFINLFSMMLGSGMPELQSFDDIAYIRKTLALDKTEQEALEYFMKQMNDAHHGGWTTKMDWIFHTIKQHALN
Chain of Serine/threonine-protein kinase pim-1 (Homo sapiens) (P11309 whole entry, looked up): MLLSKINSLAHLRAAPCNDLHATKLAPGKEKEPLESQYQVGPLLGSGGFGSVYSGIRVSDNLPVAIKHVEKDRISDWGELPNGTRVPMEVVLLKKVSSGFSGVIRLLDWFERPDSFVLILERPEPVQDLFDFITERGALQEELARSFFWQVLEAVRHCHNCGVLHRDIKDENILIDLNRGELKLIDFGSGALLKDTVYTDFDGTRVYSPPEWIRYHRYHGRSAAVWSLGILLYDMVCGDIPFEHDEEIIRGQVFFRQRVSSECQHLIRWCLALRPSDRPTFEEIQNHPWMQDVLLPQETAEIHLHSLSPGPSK
Chain of Cyclin-dependent kinase 14 (Homo sapiens) (O94921 whole entry): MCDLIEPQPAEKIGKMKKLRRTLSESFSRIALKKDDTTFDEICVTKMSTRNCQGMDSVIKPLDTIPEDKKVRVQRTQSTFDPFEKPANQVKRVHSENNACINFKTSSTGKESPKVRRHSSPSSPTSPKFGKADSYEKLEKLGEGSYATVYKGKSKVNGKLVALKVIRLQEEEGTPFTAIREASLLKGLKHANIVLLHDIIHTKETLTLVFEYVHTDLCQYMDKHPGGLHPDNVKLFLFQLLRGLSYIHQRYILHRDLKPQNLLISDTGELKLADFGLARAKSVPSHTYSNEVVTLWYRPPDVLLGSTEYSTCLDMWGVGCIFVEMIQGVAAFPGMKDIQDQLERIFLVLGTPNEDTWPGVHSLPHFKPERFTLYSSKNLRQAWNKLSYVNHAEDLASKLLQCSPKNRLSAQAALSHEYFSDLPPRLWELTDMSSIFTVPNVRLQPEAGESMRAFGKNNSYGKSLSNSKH
Chain of MAP kinase-interacting serine/threonine-protein kinase 2 (Homo sapiens) (Q9HBH9 whole entry, looked up): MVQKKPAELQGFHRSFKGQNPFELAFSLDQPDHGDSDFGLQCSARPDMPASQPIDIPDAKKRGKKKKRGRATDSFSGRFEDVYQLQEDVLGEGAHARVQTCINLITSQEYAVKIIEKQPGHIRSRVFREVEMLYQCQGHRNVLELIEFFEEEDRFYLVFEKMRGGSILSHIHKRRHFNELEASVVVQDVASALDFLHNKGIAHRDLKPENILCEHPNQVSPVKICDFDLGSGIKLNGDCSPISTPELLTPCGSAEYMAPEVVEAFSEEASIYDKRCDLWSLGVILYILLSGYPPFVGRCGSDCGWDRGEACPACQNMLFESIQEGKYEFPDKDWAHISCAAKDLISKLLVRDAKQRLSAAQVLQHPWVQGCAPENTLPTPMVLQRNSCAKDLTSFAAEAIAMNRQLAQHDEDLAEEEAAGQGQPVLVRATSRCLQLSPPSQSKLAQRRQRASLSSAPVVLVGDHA
Chain of Insulin receptor-related protein (Homo sapiens) (P14616 27-742 limits assumed): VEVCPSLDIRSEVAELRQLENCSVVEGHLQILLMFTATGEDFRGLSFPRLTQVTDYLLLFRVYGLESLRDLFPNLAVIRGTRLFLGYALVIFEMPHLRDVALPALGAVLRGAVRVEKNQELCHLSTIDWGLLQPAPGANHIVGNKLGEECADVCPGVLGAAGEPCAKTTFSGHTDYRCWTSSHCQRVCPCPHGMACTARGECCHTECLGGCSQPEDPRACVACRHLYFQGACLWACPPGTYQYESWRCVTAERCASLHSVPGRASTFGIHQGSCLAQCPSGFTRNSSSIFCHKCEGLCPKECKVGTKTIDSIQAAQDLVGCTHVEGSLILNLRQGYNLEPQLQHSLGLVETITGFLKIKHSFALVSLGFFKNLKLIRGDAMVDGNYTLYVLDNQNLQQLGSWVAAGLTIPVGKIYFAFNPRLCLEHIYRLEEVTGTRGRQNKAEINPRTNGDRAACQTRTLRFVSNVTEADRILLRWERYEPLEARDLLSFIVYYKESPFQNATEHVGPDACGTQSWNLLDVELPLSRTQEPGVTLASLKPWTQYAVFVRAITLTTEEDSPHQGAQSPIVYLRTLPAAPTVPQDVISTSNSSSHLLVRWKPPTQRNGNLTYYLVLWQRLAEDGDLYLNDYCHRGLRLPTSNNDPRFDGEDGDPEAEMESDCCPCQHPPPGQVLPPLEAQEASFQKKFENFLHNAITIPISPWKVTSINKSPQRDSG
Chain of Insulin receptor-related protein (Homo sapiens) (P14616 747-1297 limits assumed): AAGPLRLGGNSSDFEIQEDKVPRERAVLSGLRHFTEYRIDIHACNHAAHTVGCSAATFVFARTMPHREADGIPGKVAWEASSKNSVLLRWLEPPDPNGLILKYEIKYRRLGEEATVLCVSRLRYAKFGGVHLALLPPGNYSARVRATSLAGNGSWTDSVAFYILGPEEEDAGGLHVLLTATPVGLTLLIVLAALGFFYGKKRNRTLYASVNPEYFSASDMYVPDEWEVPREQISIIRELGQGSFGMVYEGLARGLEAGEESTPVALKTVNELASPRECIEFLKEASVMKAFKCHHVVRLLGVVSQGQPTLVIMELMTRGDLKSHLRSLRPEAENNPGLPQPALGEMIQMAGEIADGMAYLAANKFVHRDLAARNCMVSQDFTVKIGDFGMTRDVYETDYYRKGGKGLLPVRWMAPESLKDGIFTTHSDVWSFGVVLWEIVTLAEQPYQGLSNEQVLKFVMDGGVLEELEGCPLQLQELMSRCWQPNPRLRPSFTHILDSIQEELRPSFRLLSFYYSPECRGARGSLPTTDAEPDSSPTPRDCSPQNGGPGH
Chain of Serine/threonine-protein kinase BRSK2 (Homo sapiens) (Q8IWQ3 whole entry): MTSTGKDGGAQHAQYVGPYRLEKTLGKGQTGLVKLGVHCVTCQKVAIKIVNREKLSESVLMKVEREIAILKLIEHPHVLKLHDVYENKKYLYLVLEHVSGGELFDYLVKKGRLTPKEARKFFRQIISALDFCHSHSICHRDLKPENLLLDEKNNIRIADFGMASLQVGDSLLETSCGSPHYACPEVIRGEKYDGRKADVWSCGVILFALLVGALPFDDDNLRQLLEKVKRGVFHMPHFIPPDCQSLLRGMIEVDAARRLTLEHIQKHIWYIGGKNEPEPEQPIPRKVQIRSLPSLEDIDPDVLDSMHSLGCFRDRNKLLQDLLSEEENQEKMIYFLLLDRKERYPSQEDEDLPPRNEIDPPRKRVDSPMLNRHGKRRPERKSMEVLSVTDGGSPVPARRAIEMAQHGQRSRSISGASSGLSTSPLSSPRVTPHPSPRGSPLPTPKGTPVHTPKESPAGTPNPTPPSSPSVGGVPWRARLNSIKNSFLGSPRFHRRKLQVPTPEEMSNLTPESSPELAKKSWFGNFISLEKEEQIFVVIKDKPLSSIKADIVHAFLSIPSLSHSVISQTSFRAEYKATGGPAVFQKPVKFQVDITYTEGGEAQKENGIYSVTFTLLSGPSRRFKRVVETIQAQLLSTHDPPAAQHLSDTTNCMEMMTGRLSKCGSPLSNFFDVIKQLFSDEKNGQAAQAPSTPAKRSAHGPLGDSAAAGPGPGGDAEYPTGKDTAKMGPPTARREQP
Chain of 5-hydroxytryptamine receptor 7 (Homo sapiens) (P34969 whole entry): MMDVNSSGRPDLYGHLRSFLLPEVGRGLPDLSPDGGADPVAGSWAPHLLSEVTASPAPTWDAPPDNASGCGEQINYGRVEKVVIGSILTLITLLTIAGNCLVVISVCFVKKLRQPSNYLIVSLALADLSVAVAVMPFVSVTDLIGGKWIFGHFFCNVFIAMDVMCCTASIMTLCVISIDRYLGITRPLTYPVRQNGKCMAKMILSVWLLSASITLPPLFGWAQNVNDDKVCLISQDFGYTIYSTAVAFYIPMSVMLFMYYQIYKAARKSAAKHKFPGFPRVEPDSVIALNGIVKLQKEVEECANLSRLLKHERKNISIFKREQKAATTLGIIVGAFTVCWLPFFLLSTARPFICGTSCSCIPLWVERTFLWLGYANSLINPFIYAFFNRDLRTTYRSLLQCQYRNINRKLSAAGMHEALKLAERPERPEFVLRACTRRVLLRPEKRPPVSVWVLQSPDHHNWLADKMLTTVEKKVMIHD
Chain of Sigma non-opioid intracellular receptor 1 (Q99720 whole entry): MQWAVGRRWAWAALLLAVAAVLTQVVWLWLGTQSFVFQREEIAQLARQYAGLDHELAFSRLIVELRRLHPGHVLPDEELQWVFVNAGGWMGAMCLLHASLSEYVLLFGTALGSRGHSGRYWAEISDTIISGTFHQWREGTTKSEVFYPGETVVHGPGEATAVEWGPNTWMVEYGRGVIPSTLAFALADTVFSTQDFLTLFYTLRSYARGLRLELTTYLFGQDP

Structure (SMILES) | residual activity [1] | residual activity [2] | residual activity [3] | residual activity [4] | residual activity [5] | residual activity [6] | residual activity [7] | residual activity [8] | residual activity [9] | residual activity [10] | residual activity [11] | residual activity [12] | residual activity [13] | residual activity [14] | residual activity [15] | inhibition [16] | residual activity [17] | residual activity [18] | residual activity [19] | residual activity [20] | further results
Cn1cncc1[C@](O)(COc1ccc(C#N)cc1-c1ccc(OC(F)(F)F)cc1)c1ccc(C#N)cc1 [ABT-100] | 78% | 48% | 94% | 85% | 62% | 66% | 93% | 100% | 85% | 100% | 87% | 83% | 86% | 83% | 100% | 1.11% | 100% | 100% | 100% | 100% | residual activity [21]: 85%; inhibition [22]: 9.15%; inhibition [23]: 42.5%; residual activity [24]: 99%; residual activity [25]: 98%; residual activity [26]: 77%; residual activity [27]: 98%; residual activity [28]: 55%; residual activity [29]: 89%; residual activity [30]: 95%; residual activity [31]: 82%; inhibition [32]: -0.429%; residual activity [33]: 100%; residual activity [34]: 74%; inhibition [35]: 0.26%; residual activity [36]: 100%; residual activity [37]: 100%; residual activity [38]: 96%; residual activity [39]: 100%
Cn1cncc1[C@@](O)(COc1ccc(C#N)cc1-c1ccc(OC(F)(F)F)cc1)c1ccc(C#N)cc1 [A-108] | 100% | 100% | 100% | 74% | 100% | 100% | 96% | 85% | 90% | 68% | 85% | 100% | 100% | 84% | 92% | 7.11% | 72% | 100% | 75% | 12% | residual activity [21]: 98%; inhibition [22]: 15%; inhibition [23]: 92.3%; residual activity [24]: 99%; residual activity [25]: 100%; residual activity [26]: 83%; residual activity [27]: 100%; residual activity [28]: 98%; residual activity [29]: 93%; residual activity [30]: 84%; residual activity [31]: 66%; inhibition [32]: -4.18%; residual activity [33]: 97%; residual activity [34]: 95%; inhibition [35]: 17.1%; residual activity [36]: 100%; residual activity [37]: 96%; residual activity [38]: 100%; residual activity [39]: 89%
